{"source": "patent US20160367623A1", "about": "“AGONISTS OF GUANYLATE CYCLASE USEFUL FOR THE TREATMENT OF GASTROINTESTINAL DISORDERS, INFLAMMATION, CANCER AND OTHER DISORDERS” (priority 2015, published 2016)", "system": "patients with chronic idiopathic constipation (CIC)", "assay": "Second phase 3 CIC trial: change from baseline in stool consistency (BSFS)", "format": "in vivo, human", "conditions": "3 mg", "key": {"[1]": {"conditions": "Post-Treatment Week 13, All Randomized (includes Duplicate Patients)"}, "[2]": {"conditions": "Post-Treatment Week 13, ITT Population"}, "[3]": {"conditions": "Post-Treatment Week 13, ITT Population-Excluding Duplicate Patients"}, "[4]": {"conditions": "Post-Treatment Week 14, All Randomized (includes Duplicate Patients)"}, "[5]": {"conditions": "Post-Treatment Week 14, ITT Population"}, "[6]": {"conditions": "Post-Treatment Week 14, ITT Population-Excluding Duplicate Patients"}, "[7]": {"conditions": "Week 1, All Randomized (includes Duplicate Patients)"}, "[8]": {"conditions": "Week 1, ITT Population-Excluding Duplicate Patients"}, "[9]": {"conditions": "Week 2, All Randomized (includes Duplicate Patients)"}, "[10]": {"conditions": "Week 2, ITT Population-Excluding Duplicate Patients"}, "[11]": {"conditions": "Week 3, All Randomized (includes Duplicate Patients)"}, "[12]": {"conditions": "Week 3, ITT Population-Excluding Duplicate Patients"}, "[13]": {"conditions": "Week 4, All Randomized (includes Duplicate Patients)"}, "[14]": {"conditions": "Week 4, ITT Population-Excluding Duplicate Patients"}, "[15]": {"conditions": "Week 5, All Randomized (includes Duplicate Patients)"}, "[16]": {"conditions": "Week 5, ITT Population-Excluding Duplicate Patients"}, "[17]": {"conditions": "Week 6, All Randomized (includes Duplicate Patients)"}, "[18]": {"conditions": "Week 6, ITT Population-Excluding Duplicate Patients"}}, "note": "Bridge positions count the residues as written; N and C are the ends. Ends that are not written are not given here.", "data": [{"substance": "Asn^1-Asp^2-Glu^3-Cys^4-Glu^5-Leu^6-Cys^7-Val^8-Asn^9-Val^10-Ala^11-Cys^12-Thr^13-Gly^14-Cys^15-Leu^16 (NDECELCVNVACTGCL; disulfide 4-12, 7-15) [Plecanatide, uroguanylin analogue, guanylate cyclase-C agonist; (C4:C12, C7:C15) bicycle peptide]", "values": [{"measurement": "Change from Baseline in Stool Consistency, Difference from Placebo", "setting": "[1]", "result": 0.24}, {"measurement": "Change from Baseline in Stool Consistency, LS Mean (SE)", "setting": "[1]", "result": "1.23 (0.069)"}, {"measurement": "Change from Baseline in Stool Consistency, Mean (SD)", "setting": "[1]", "result": "1.27 (1.358)"}, {"measurement": "Change from Baseline in Stool Consistency, Difference from Placebo", "setting": "[2]", "result": 0.23}, {"measurement": "Change from Baseline in Stool Consistency, LS Mean (SE)", "setting": "[2]", "result": "1.22 (0.071)"}, {"measurement": "Change from Baseline in Stool Consistency, Mean (SD)", "setting": "[2]", "result": "1.25 (1.368)"}, {"measurement": "Change from Baseline in Stool Consistency, Difference from Placebo", "setting": "[3]", "result": 0.23}, {"measurement": "Change from Baseline in Stool Consistency, LS Mean (SE)", "setting": "[3]", "result": "1.22 (0.072)"}, {"measurement": "Change from Baseline in Stool Consistency, Mean (SD)", "setting": "[3]", "result": "1.25 (1.374)"}, {"measurement": "Change from Baseline in Stool Consistency, Difference from Placebo", "setting": "[4]", "result": 0.15}, {"measurement": "Change from Baseline in Stool Consistency, LS Mean (SE)", "setting": "[4]", "result": "1.14 (0.071)"}, {"measurement": "Change from Baseline in Stool Consistency, Mean (SD)", "setting": "[4]", "result": "1.19 (1.393)"}, {"measurement": "Change from Baseline in Stool Consistency, Difference from Placebo", "setting": "[5]", "result": 0.14}, {"measurement": "Change from Baseline in Stool Consistency, LS Mean (SE)", "setting": "[5]", "result": "1.15 (0.073)"}, {"measurement": "Change from Baseline in Stool Consistency, Mean (SD)", "setting": "[5]", "result": "1.19 (1.402)"}, {"measurement": "Change from Baseline in Stool Consistency, Difference from Placebo", "setting": "[6]", "result": 0.14}, {"measurement": "Change from Baseline in Stool Consistency, LS Mean (SE)", "setting": "[6]", "result": "1.15 (0.074)"}, {"measurement": "Change from Baseline in Stool Consistency, Mean (SD)", "setting": "[6]", "result": "1.18 (1.408)"}, {"measurement": "Change from Baseline in Stool Consistency, Difference from Placebo", "setting": "[7]", "result": 0.68}, {"measurement": "Change from Baseline in Stool Consistency, LS Mean (SE)", "setting": "[7]", "result": "1.26 (0.070)"}, {"measurement": "Change from Baseline in Stool Consistency, Mean (SD)", "setting": "[7]", "result": "1.38 (1.464)"}, {"measurement": "Change from Baseline in Stool Consistency, Difference from Placebo", "setting": "Week 1, ITT Population", "result": 0.68}, {"measurement": "Change from Baseline in Stool Consistency, LS Mean (SE)", "setting": "Week 1, ITT Population", "result": "1.28 (0.072)"}, {"measurement": "Change from Baseline in Stool Consistency, Mean (SD)", "setting": "Week 1, ITT Population", "result": "1.39 (1.479)"}, {"measurement": "Change from Baseline in Stool Consistency, Difference from Placebo", "setting": "[8]", "result": 0.69}, {"measurement": "Change from Baseline in Stool Consistency, LS Mean (SE)", "setting": "[8]", "result": "1.30 (0.073)"}, {"measurement": "Change from Baseline in Stool Consistency, Mean (SD)", "setting": "[8]", "result": "1.39 (1.469)"}, {"measurement": "Change from Baseline in Stool Consistency, Difference from Placebo", "setting": "[9]", "result": 0.66}, {"measurement": "Change from Baseline in Stool Consistency, LS Mean (SE)", "setting": "[9]", "result": "1.35 (0.070)"}, {"measurement": "Change from Baseline in Stool Consistency, Mean (SD)", "setting": "[9]", "result": "1.46 (1.566)"}, {"measurement": "Change from Baseline in Stool Consistency, Difference from Placebo", "setting": "Week 2, ITT Population", "result": 0.66}, {"measurement": "Change from Baseline in Stool Consistency, LS Mean (SE)", "setting": "Week 2, ITT Population", "result": "1.38 (0.073)"}, {"measurement": "Change from Baseline in Stool Consistency, Mean (SD)", "setting": "Week 2, ITT Population", "result": "1.46 (1.583)"}, {"measurement": "Change from Baseline in Stool Consistency, Difference from Placebo", "setting": "[10]", "result": 0.65}, {"measurement": "Change from Baseline in Stool Consistency, LS Mean (SE)", "setting": "[10]", "result": "1.39 (0.073)"}, {"measurement": "Change from Baseline in Stool Consistency, Mean (SD)", "setting": "[10]", "result": "1.46 (1.578)"}, {"measurement": "Change from Baseline in Stool Consistency, Difference from Placebo", "setting": "[11]", "result": 0.52}, {"measurement": "Change from Baseline in Stool Consistency, LS Mean (SE)", "setting": "[11]", "result": "1.41 (0.070)"}, {"measurement": "Change from Baseline in Stool Consistency, Mean (SD)", "setting": "[11]", "result": "1.52 (1.570)"}, {"measurement": "Change from Baseline in Stool Consistency, Difference from Placebo", "setting": "Week 3, ITT Population", "result": 0.51}, {"measurement": "Change from Baseline in Stool Consistency, LS Mean (SE)", "setting": "Week 3, ITT Population", "result": "1.41 (0.073)"}, {"measurement": "Change from Baseline in Stool Consistency, Mean (SD)", "setting": "Week 3, ITT Population", "result": "1.51 (1.573)"}, {"measurement": "Change from Baseline in Stool Consistency, Difference from Placebo", "setting": "[12]", "result": 0.51}, {"measurement": "Change from Baseline in Stool Consistency, LS Mean (SE)", "setting": "[12]", "result": "1.42 (0.074)"}, {"measurement": "Change from Baseline in Stool Consistency, Mean (SD)", "setting": "[12]", "result": "1.52 (1.578)"}, {"measurement": "Change from Baseline in Stool Consistency, Difference from Placebo", "setting": "[13]", "result": 0.58}, {"measurement": "Change from Baseline in Stool Consistency, LS Mean (SE)", "setting": "[13]", "result": "1.45 (0.071)"}, {"measurement": "Change from Baseline in Stool Consistency, Mean (SD)", "setting": "[13]", "result": "1.56 (1.509)"}, {"measurement": "Change from Baseline in Stool Consistency, Difference from Placebo", "setting": "Week 4, ITT Population", "result": 0.55}, {"measurement": "Change from Baseline in Stool Consistency, LS Mean (SE)", "setting": "Week 4, ITT Population", "result": "1.45 (0.073)"}, {"measurement": "Change from Baseline in Stool Consistency, Mean (SD)", "setting": "Week 4, ITT Population", "result": "1.55 (1.494)"}, {"measurement": "Change from Baseline in Stool Consistency, Difference from Placebo", "setting": "[14]", "result": 0.54}, {"measurement": "Change from Baseline in Stool Consistency, LS Mean (SE)", "setting": "[14]", "result": "1.45 (0.074)"}, {"measurement": "Change from Baseline in Stool Consistency, Mean (SD)", "setting": "[14]", "result": "1.56 (1.504)"}, {"measurement": "Change from Baseline in Stool Consistency, Difference from Placebo", "setting": "[15]", "result": 0.68}, {"measurement": "Change from Baseline in Stool Consistency, LS Mean (SE)", "setting": "[15]", "result": "1.53 (0.071)"}, {"measurement": "Change from Baseline in Stool Consistency, Difference from Placebo", "setting": "Week 5, ITT Population", "result": 0.68}, {"measurement": "Change from Baseline in Stool Consistency, LS Mean (SE)", "setting": "Week 5, ITT Population", "result": "1.55 (0.074)"}, {"measurement": "Change from Baseline in Stool Consistency, Mean (SD)", "setting": "Week 5, ITT Population", "result": "1.69 (1.462)"}, {"measurement": "Change from Baseline in Stool Consistency, Difference from Placebo", "setting": "[16]", "result": 0.67}, {"measurement": "Change from Baseline in Stool Consistency, LS Mean (SE)", "setting": "[16]", "result": "1.56 (0.075)"}, {"measurement": "Change from Baseline in Stool Consistency, Mean (SD)", "setting": "[16]", "result": "1.70 (1.469)"}, {"measurement": "Change from Baseline in Stool Consistency, Difference from Placebo", "setting": "[17]", "result": 0.74}, {"measurement": "Change from Baseline in Stool Consistency, LS Mean (SE)", "setting": "[17]", "result": "1.55 (0.072)"}, {"measurement": "Change from Baseline in Stool Consistency, Difference from Placebo", "setting": "Week 6, ITT Population", "result": 0.74}, {"measurement": "Change from Baseline in Stool Consistency, LS Mean (SE)", "setting": "Week 6, ITT Population", "result": "1.56 (0.074)"}, {"measurement": "Change from Baseline in Stool Consistency, Mean (SD)", "setting": "Week 6, ITT Population", "result": "1.67 (1.533)"}, {"measurement": "Change from Baseline in Stool Consistency, Difference from Placebo", "setting": "[18]", "result": 0.73}, {"measurement": "Change from Baseline in Stool Consistency, LS Mean (SE)", "setting": "[18]", "result": "1.56 (0.075)"}, {"measurement": "Change from Baseline in Stool Consistency, Mean (SD)", "setting": "[18]", "result": "1.67 (1.529)"}]}]}
